Results from publication PMC12830207, “Targeting the protein–protein interaction between the CDC37 cochaperone and client kinases by an allosteric RAF dimer breaker” (The Journal of Biological Chemistry, 2025).
“Also recorded” adds a separate entry of the source.

How the values were obtained:
[1] = biological target: BRAF kinase domain; experiment: Hydrogen–deuterium exchange MS; type: binding, human; conditions: BRAF^KD 10 μM, braftide 30 μM, pH 7.4, 20 s to 4.5 h, duplicate HDX–MS
Procedure: The 6XHIS-BRAF KD (residues 442–723, supplementary information 1) was purified as previously reported ([39]) with the human sequence expressed in Escherichia coli. The KD contains 16 solubilizing mutations (I543A, I544S, I551K, Q562R, L588N, K630S, F667E, Y673S, A688R, L706S, Q709R, S713E, L716E, S720E, P722S, and K723G), which were determined to preserve kinase activity and increase protein expression in E. coli. Mutations of the 16 residues are not involved in MEK1 interactions ([40], [41]). […] Protein induction was induced by 1 mM IPTG, 16 °C in a shaking incubator, 200 RPM. The pellet was lysed in a buffer containing 50 mM Hepes (pH 7.4), 250 mM NaCl, 50 mM KCl, 10 mM imidazole, 10 mM β-mercaptoethanol, 10% glycerol, and 1X protease inhibitor (Roche) under sonication. […] Protein fractions were analyzed on SDS-PAGE, pooled, and flash frozen for analytical use.
The exchange times varied from 20 s to 4.5 h. […] Peptides were identified through MS/MS analysis of nondeuterated samples, with data analyzed using SEQUEST (Thermo Proteome Discoverer) against a database containing sequences of BRAF^KD, braftide, pepsin, potential contaminants, and decoy proteins. Deuterated samples were analyzed using ExMS2 software (developed by Englander Lab at University of Pennsylvania).

[2] = system: CDC37–BRAF interaction; experiment: Co-IP of CDC37-FLAG with BRAF-V5 in HCT116; type: cell-based; conditions: HCT116, 5 µM braftide, three biological replicates
Procedure: HEK293 cells were seeded at 1(10)^6 cells per well for a 6-well plate or 5(10)^6 for 10 cm dishes and incubated until 40% to 60% confluency. Transfection was carried out using a 1:3 DNA:PEI-MAX ratio in OPTI-MEM and allowed 48 h for protein expression. For peptide assays, 48 h post-transfection, cells were treated with TAT–braftide carried in OPTI-MEM at indicated concentrations. Cells were harvested in cold PBS. Harvested cells were lysed in 4% SDS or modified radioimmunoprecipitation assay (RIPA) for co-IP experiments. Quantification of total protein by the bicinchoninic acid assay was carried out according to the manufacturer's protocols (Pierce; catalog no.: 23225).
Transfected HEK293 cells were treated with the indicated treatments and harvested in cold PBS. […] Samples were analyzed via immunoblot.
Western blot band densities were quantified with ImageJ software (National Institutes of Health) and normalized to the indicated loading control. Statistical significance was determined through one-/two-way ANOVA, where indicated, followed by Tukey's honest significant difference post hoc test with corresponding p values (∗p < 0.05, ∗∗p < 0.002, ∗∗∗p < 0.0002, and ∗∗∗∗p < 0.0001). […]

[3] = system: MAPK proteins (BRAF, CRAF, MEK, pMEK, ERK, pERK); conditions: HCT116, braftide alone; cited from earlier work
Procedure: HCT116 cells were treated with 17-AAG alone or in combination with braftide (Fig. 5, C and D). HSP90 monotherapy (17-AAG) depleted CRAF kinase level at a concentration of 2 μM (Fig. 5C), whereas braftide monotherapy ([23]) depleted RAF kinase levels at a concentration of 10 μM. To investigate potential synergy, we assessed combinatorial treatments in HCT116 cells, using a fixed concentration of 500 nM of the primary drug (braftide) with increasing concentrations (0 to 1 μM) of the secondary drug (17-AAG) (Fig. 5D).

GRKKRRQRRRPQ-miniPEG-TRHVNILLFM [Braftide]
braftide binding region on BRAF KD / change in deuterium uptake [1]: slows deuterium incorporation compared to apo BRAF^KD; also recorded: essentially no change except in the dimer interface region
braftide binding region on BRAF KD / change in deuterium uptake ([1]; listed as braftide): spanning amino acids 496 to 515
CDC37–BRAF interaction [2]: decreases its association with coimmunoprecipitated BRAF-V5 and CRAF-HA
CDC37–BRAF interaction ([2]; listed as braftide): reduced the CDC37–RAF interaction at lower doses than in HEK293 cells
concentration at which RAF kinase levels are depleted, braftide monotherapy [3]: 10 µM
